Measurements published in paper PMC9501768, “A New Class of Tunable Acid-Sensitive Linkers for Native Drug Release Based on the Trityl Protecting Group” (Bioconjugate Chemistry, 2022).
Where two headings read alike, the source gives them in different places.

Assays:
[1] = Release of native API from API-linker construct in buffer (UHPLC, first-order fit); format: physicochemical
Method: Release of DMXAA-amine 1 from the linker construct 12 (method described in S3.1) was measured at 37 °C for 24 h. At set time points, the concentration of the native compound 1 in a buffer of different pH values was measured by ultrahigh performance liquid chromatography (UHPLC) as shown in Figure 3.
The half-life values (t1/2) were determined from the slope of the first-order kinetic curves fitted through the release curve and are shown in Table 2. Details are provided in Section S3 of the Supporting Information. […]
S3: In vitro release protocol and stability control
S3.1 Release of API from API-linker construct
API-linker constructs 12-16, 17 and 18 were dissolved in DMSO at 1 mg/mL. This was then further diluted 10x in 20 mM sodium phosphate buffer 130 mM NaCl pH 7.4, 100 mM sodium citrate buffer 50 mM NaCl pH 6.5, 20 mM ammonium acetate 130 mM NaCl pH 5.0 or if needed 100 mM sodium phosphate buffer 50 mM NaCl pH 3.0. These dilutions were incubated at 37°C in the sample tray and at different timepoints, the concentration of free API 1, 2, or 3 was measured on a H-class UPLC system (Waters) (Figure S7 and S8)
Figure S 7: Chromatogram of 15 at 37°C, pH 7.4 t=0 hours
(1 picture or pasted object on this page, not shown here)
Figure S 8: Chromatogram of 15 at 37°C, pH 7.4, t= 12 hours […]
injection volume, 30 °C column temperature. Run with the following gradient: […]
Time (min) Flow rate %A %B
With A: 25 mM Ammonium acetate buffer pH 5.0 and B: acetonitrile.
2: Acquity HSS T3 1.7 μm, 50 x 2.1 mm column for 18 at 275 nm, 5.0 µL injection volume, 30 °C column temperature. Run with the following gradient: […]
Time (min) Flow rate % A % B
With A: phosphate buffer pH 2.5 and B: methanol.
3: Acquity BEH C18 1.7 μm, 50 x 2.1 mm for 18 at 233 nm, 2.0 µL injection volume, 30 °C column […]
With A: 10 mM ammonium bicarbonate pH 9.6 and B: acetonitrile.
Measured concentrations were plotted using GraphPad Prism 9 and fitted based on first order kinetics.
All fitted lines complied with an R2>0.95. This gave the half-life and plateau when this was not reached within the measured timeframe. […]
Size of all particles were confirmed to be between 55 and 70 nm.

[2] = as above; format: physicochemical; details: pH 5.0, 37 °C
[3] = design: method as in PMID 14644; details: doxorubicin amine nitrogen bound to trityl; cited from earlier work
[4] = ammonium acetate buffer, pH 5, API-trityl linker construct in buffer, pH 5.0, 37 °C, read-out: t1/2 pH 5.0 (converted)
[5] = sodium citrate buffer, pH 6.5, API-trityl linker construct in buffer, pH 6.5, 37 °C, read-out: t1/2 pH 6.5 (converted)
[6] = sodium phosphate buffer, pH 7.4, API-trityl linker construct in buffer, pH 7.4, 37 °C, values for 17 are estimations (doxorubicin precipitation), read-out: t1/2 pH 7.4 (converted)

half-life at 0.1 mg/mL [1, 4] [h]	half-life at 0.1 mg/mL [1, 5] [h]	half-life at 0.1 mg/mL [1, 6] [h]	SMILES	other results
< 1	1.2 ± 0.1	4.2 ± 0.2	C=C(C)C(=O)NCCCNC(=O)c1ccc(C(Nc2ccc(CC(=O)[O-])c3oc4c(C)c(C)ccc4c(=O)c23)(c2ccc(OC)c(OC)c2)c2ccc(OC)c(OC)c2)cc1.[Li+] [compound 13]	–
< 1	1.9 ± 0.2	–	C=C(C)C(=O)NCCCNC(=O)c1ccc(C(Nc2ccc(CC(=O)[O-])c3oc4c(C)c(C)ccc4c(=O)c23)(c2ccc(OC)c(C)c2)c2ccc(OC)c(C)c2)cc1.[Li+] [compound 15]	–
< 1	< 1	2.3 ± 0.1	C=C(C)C(=O)NCCCNC(=O)c1cccc(C(Nc2ccc(CC(=O)[O-])c3oc4c(C)c(C)ccc4c(=O)c23)(c2ccc(OC)c(OC)c2)c2ccc(OC)c(OC)c2)c1.[Li+] [compound 16]	–

The remaining lines, values behind:

SMILES	half-life at 0.1 mg/mL [1, 4] [h]	half-life at 0.1 mg/mL [1, 5] [h]	half-life at 0.1 mg/mL [1, 6] [h]	other results
COc1cccc2c1C(=O)c1c(O)c3c(c(O)c1C2=O)C[C@@](O)(C(=O)CO)C[C@@H]3O[C@H]1C[C@H](N)[C@H](O)[C@H](C)O1 [compound 2, doxorubicin, reference compound]	< 1	–	–	–
Nc1ccn([C@@H]2O[C@H](CO)[C@@H](O)C2(F)F)c(=O)n1 [compound 3, gemcitabine]	–	–	–	release at pH 5.0 within 72 h [2]: no detectable release
C=C(C)C(=O)NCCCNC(=O)c1cccc(C(Nc2ccc(CC(=O)[O-])c3oc4c(C)c(C)ccc4c(=O)c23)(c2ccc(OC)cc2)c2ccc(OC)cc2)c1.[Li+] [compound 12]	1.8 ± 0.1	83 ± 27	–	release of native DMXAA-amine 1 at pH 5 ([1]; construct in buffer, pH 5, 37 °C, within 12 h): 100%; release of native DMXAA-amine 1 at pH 6.5 ([1]; construct in buffer, pH 6.5, 37 °C, over 24 h): ~20%; release of native DMXAA-amine 1 at pH 7.4 ([1]; construct in buffer, pH 7.4, 37 °C, over 24 h): Hardly any release
C=C(C)C(=O)NCCCNC(=O)c1ccc(C(Nc2ccc(CC(=O)[O-])c3oc4c(C)c(C)ccc4c(=O)c23)(c2ccc(OC)cc2OC)c2ccc(OC)cc2OC)cc1.[Li+] [compound 14]	< 1	< 1	< 1	–
C=C(C)C(=O)NCCCNC(=O)c1cccc(C(N[C@H]2C[C@H](O[C@H]3C[C@](O)(C(=O)CO)Cc4c(O)c5c(c(O)c43)C(=O)c3c(OC)cccc3C5=O)O[C@@H](C)[C@H]2O)(c2ccc(OC)cc2)c2ccc(OC)cc2)c1 [compound 17]	–	–	–	half-life at 0.1 mg/mL ([1]; API-trityl linker construct in buffer, pH 5.0, 37 °C, read-out: t1/2 pH 5.0 (converted)): < 1 h; half-life at 0.1 mg/mL ([1]; API-trityl linker construct in buffer, pH 7.4, 37 °C, values for 17 are estimations (doxorubicin precipitation), read-out: t1/2 pH 7.4 (converted)): ~6 h; pKa of the most basic nitrogen [3]: 8.4
C=C(C)C(=O)NCCCNC(=O)c1cccc(C(Nc2ccn([C@@H]3O[C@H](CO)[C@@H](O)C3(F)F)c(=O)n2)(c2ccc(OC)cc2)c2ccc(OC)cc2)c1 [compound 18]	> 72	–	> 72	t1/2 pH 3.0 (h) ([1]; API-trityl linker construct in buffer, pH 3.0, 37 °C, listed as gem–trityl 18): 23.2 ± 0.5 h; half-life at 0.1 mg/mL ([1]; sodium phosphate buffer, pH 3, API-trityl linker construct in buffer, pH 3.0, 37 °C, read-out: t1/2 pH 3.0 (converted)): 23.3 h
